Measurements taken from patent US10196385B2, “Tetrahydropyranyl benzamide derivatives” (Eli Lilly and Company, priority 2015, dated 2019).

Columns and labels:
human GPR142 = human GPR142 (Homo sapiens (Human), UniProt Q7Z601); test: GPR142 Agonist Effect as Measured by IP-1 Assay; format: cell-based; settings: HEK293 cells expressing human GPR142, Mean ± SEM; for Efficacy: IP-1 assay; for EC50: IP-One HTRF, read-out: hGPR142 IP1 EC50
Protocol: GPR142 Agonist Effect as Measured by IP-1 Assay
The purpose of this assay is to detect GPR142 agonist effect.
HEK293 cells expressing human GPR142 are maintained in DMEM supplemented with 10% FBS and 800 μg/ml G418 (Geneticin®) at 37° C. and 5% CO2. The cells are plated in 384 well plates at 5000 cells per well and allowed 18 hours for attachment. After addition of compounds at varying concentrations ranging from 30 μM to 1 nM, cells are incubated for 1 hr. IP-1 measurements are performed using an IP-One HTRF® assay kit (Cisbio) according to manufacturer's protocol using assay buffer containing 1×HBSS (+Ca, +Mg), 0.1% BSA, 50 mM LiCl and 20 mM HEPES, pH 7.2. The reaction is stopped by addition of IP1-d2 (IP-1 coupled to an organic HTRF acceptor) followed by cryptate solution (http://www.htrf.com/usa/htrf-chemistry). The plates are incubated at 25° C. for 1 hr. Fluorescence is read in an Envision instrument at 665 nm and 620 nm wavelength. The ratio of 665 nm/620 nm is calculated and converted to IP-1 levels using an IP-1 standard curve. The data is fit to a 4 parameter-fit logistics to determine EC50 values.

GPR142 = GPR142 (Mus musculus (Mouse), UniProt Q7TQN9); test: Intraperitoneal Glucose Tolerance Tests (IPGTT); format: in vivo; settings: male C57BL/6 mice; for ED50 / ED80: oral dosing 30 minutes prior to i.p. glucose challenge (2 g/kg), glucose AUC lowering; for considered positive in the assay (reduction in glucose AUC, P<0.05): oral dosing, IPGTT
Protocol: Intraperitoneal Glucose Tolerance Tests (IPGTT)
IPGTT assay is used to examine the ability of exemplified compounds to activate GPR142 in vivo resulting in anti-diabetic efficacy, i.e. reduction in plasma glucose levels. Male C57BL/6 mice (8-10 weeks of age) are fed normal rodent chow diet and water ad libitum. On the night before the study, animals are fasted overnight in clean cages. On the morning of the study, animals are dosed orally with vehicle or compound at the indicated doses 30 minutes prior to the glucose challenge (2 g/kg) by intraperitoneal injection. Blood glucose levels are determined from tail bleeds taken immediately prior to compound dosing (−30 min) and 0, 15, 30, and 60 min after glucose challenge using handheld glucometers. Plasma is isolated from tail bleeds taken at 7 min after glucose challenge and used to determine insulin levels by the Rat/Mouse Insulin Elisa kit (Millipore) or MA6000 Mouse/Rat Insulin Kit (MSD). The blood glucose profile from t=0 to t=60 min is used to calculate an area under the curve (AUC) for each treatment. Percent lowering in glucose AUC is calculated for each treatment group with respect to the AUC of vehicle group. A compound with a reduction in glucose AUC (P<0.05) is considered positive in the assay.

GPR142, sequence (Q7TQN9 whole entry): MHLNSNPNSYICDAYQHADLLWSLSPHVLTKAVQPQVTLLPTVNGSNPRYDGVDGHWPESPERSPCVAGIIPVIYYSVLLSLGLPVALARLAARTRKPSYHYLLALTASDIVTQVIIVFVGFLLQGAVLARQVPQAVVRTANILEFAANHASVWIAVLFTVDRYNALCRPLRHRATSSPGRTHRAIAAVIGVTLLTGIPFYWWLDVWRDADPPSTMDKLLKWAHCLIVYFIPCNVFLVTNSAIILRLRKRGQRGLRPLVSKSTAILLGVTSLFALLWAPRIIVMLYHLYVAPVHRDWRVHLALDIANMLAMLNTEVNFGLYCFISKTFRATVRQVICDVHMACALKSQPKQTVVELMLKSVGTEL
human GPR142, sequence (Q7Z601 whole entry): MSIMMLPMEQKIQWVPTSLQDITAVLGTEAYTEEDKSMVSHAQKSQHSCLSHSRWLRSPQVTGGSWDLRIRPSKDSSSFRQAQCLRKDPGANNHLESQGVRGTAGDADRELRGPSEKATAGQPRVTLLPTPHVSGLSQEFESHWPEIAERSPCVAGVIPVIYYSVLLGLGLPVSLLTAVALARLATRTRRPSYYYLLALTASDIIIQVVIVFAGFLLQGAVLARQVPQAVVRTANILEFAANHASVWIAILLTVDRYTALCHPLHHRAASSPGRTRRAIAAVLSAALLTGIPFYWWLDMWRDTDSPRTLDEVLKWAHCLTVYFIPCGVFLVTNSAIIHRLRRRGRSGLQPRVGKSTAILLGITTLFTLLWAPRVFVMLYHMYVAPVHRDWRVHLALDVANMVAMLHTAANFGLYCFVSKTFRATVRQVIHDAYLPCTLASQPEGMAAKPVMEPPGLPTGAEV

Efficacy (human GPR142)	EC50 (human GPR142)	Structure (SMILES)	ED50 (GPR142)	ED80 (GPR142)	considered positive in the assay (reduction in glucose AUC, P<0.05) (GPR142)
109 ± 3, n = 12%	43.5 ± 7.9 nM	Cc1ncn(C)c1-c1nnc([C@@H]2C[C@H](N(C)C(=O)c3cccc(C(F)(F)F)c3)CCO2)[nH]1 (single isomer, unassigned; isomer 1) [Example 1, Cis-(chiral)-N-[(2-[5-(1,4-Dimethyl-1H-imidazol-5-yl)-4H-1,2,4-triazol-3-yl]tetrahydro-2H-pyran-4-yl]-N-methyl-3-(trifluoromethyl)benzamide, Isomer 1]	0.30 mpk	1.6 mpk	positive
112 ± 3, n = 7%	27.2 ± 4.8 nM	Cc1ncn(C)c1-c1nnc([C@@H]2C[C@H](N(C)C(=O)c3cccc(Cl)c3)CCO2)[nH]1 (single isomer, unassigned; isomer 1) [Example 3, Cis-(chiral)-3-Chloro-N-[2-[5-(1,4-dimethyl-1H-imidazol-5-yl)-4H-1,2,4-triazol-3-yl]tetrahydro-2H-pyran-4-yl]-N-methyl-benzamide, Isomer 1]	–	–	–
110 ± 2, n = 11%	30.1 ± 4.2 nM	Cc1ncn(C)c1-c1nnc([C@@H]2C[C@H](N(C)C(=O)c3cccc(OC(F)(F)F)c3)CCO2)[nH]1 (single isomer, unassigned; isomer 1) [Example 2, Cis-(chiral)-N-[2-[5-(1,4-Dimethyl-1H-imidazol-5-yl)-4H-1,2,4-triazol-3-yl]tetrahydro-2H-pyran-4-yl]-N-methyl-3-(trifluoromethoxy)benzamide, Isomer 1]	0.24 mpk	1.6 mpk	positive
